The source made the active and inactive calls. How the calls were made is not given here.

For the experiment, the target named is glucose-6-phosphate dehydrogenase-6-phosphogluconolactonase (Plasmodium falciparum 3D7). The experiment is described as follows: inhibition of P. falciparum G6PD activity – biochemical, kinetic NADPH detection, orthogonal assay, dose response (AID 540269). The note with it: purified PfG6PD-6PGL.
With `COc1ccc(CCn2c(NN)nc3c2c(=O)[nH]c(=O)n3C)cc1`, the IC50 (usually the point on the concentration scale where inhibition reaches its midpoint) was 22.4 µM.

As for `CCc1c(C(=O)Nc2ccccc2)c(C)[nH]c(=S)c1C#N`, the IC50 was > 80 µM (inactive).

On to `O=C(CSc1nc2ccc(Cl)cc2[nH]1)NC1CCCc2ccccc21` (configuration not stated), for which the IC50 is > 80 µM (inactive).

Take `Cc1ccc(S(=O)(=O)N(C)C)cc1NC(=O)CSc1nc2ncc(Cl)cc2[nH]1`: the IC50 is > 80 µM (inactive).

As to `CN(C)C=Nc1ccc2nc3c(cc2c1)[nH]c1ccccc13`, the IC50 was > 80 µM (inactive).

With `COc1cc(N)c2ncccc2c1Cl`, the IC50 is 45.8 µM.

Turning to `COc1cccc(/C=N/NC(=O)CSc2cccc3cccnc23)c1`, the IC50 was 21.7 µM.

Consider `Oc1cc(-n2cccn2)c(O)cc1-n1cccn1`, for which the IC50 was 68.8 µM.

On to `COC(=O)C1=C(C(=O)OC)SC2(S1)C(C(=O)OC)=C(C(=O)OC)Sc1c2ssc1=O`, for which the IC50 was > 80 µM (inactive).

On to `COc1cc(NCCCn2ccc(NC(=O)OCc3ccccc3)nc2=O)cc(OC)c1OC`, for which the IC50 was > 80 µM (inactive).

`Cc1cc(O)c(C(C)C)cc1N=Cc1ccc(N(C)C)cc1`: the IC50 is > 80 µM (inactive).

Take `CCC(C)(C)c1nnc(NC(=O)C2CCN(C(=O)c3ccco3)CC2)s1`: the IC50 was > 80 µM (inactive).

Regarding `COc1ccc(S(=O)(=O)Nc2cc(SCC(=O)O)c(O)c3ccccc23)cc1`, the IC50 is 44.9 µM.

As to `Cc1cc(C)c2c(=N)c3ccccc3n(CCCCCCCCn3c4ccccc4c(=N)c4c(C)cc(C)nc43)c2n1`, the IC50 was 50.3 µM.

On to `Cc1c(/C=C/C(=O)c2ccc(Cl)s2)cnn1C`, for which the IC50 was 41.1 µM.

Regarding `C[c-]1[c-](C)[c-](C)[c-](C)[c-]1C.[Fe].c1cc2nccc(N3CCCC3)[c-]2c1` (configuration not stated), the IC50 is 52.9 µM.

As to `COC1(OC)C=CC(=O)C=C1NC(=O)c1ccccc1OC(C)=O`, the IC50 is > 80 µM (inactive).

On to `Oc1cc(CNCc2ccccc2)c(O)cc1CNCc1ccccc1`, for which the IC50 was 53.7 µM.

On to `CC1=C(C)CS(=O)N(S(=O)(=O)c2ccc(Cl)cc2)C1` (configuration not stated), for which the IC50 is > 80 µM (inactive).

Consider `CC(C)c1nnc(NC(=O)c2cccc(-n3cnnn3)c2)s1`, for which the IC50 is 27.4 µM.

`COc1ccc2nc3cc(Cl)ccc3c(Nc3ccc(O)c(CN4CCN(C)CC4)c3)c2c1`: the IC50 is > 80 µM (inactive).

As for `COc1cc(CNc2ccc(N3CCCC3)cc2)cc(Cl)c1OC`, the IC50 was > 80 µM (inactive).

On to `S=C(NN=Cc1ccccn1)N(Cc1ccccn1)Cc1ccccn1`, for which the IC50 was 29.5 µM.

For `NNC(=O)CN1C(c2ccccc2Br)=Nc2ccc(Br)cc2C1c1ccccc1` (configuration not stated), the IC50 is 57.2 µM.

Consider `CCc1cc(-c2n[nH]c(C)c2-c2ccccc2Cl)c(O)cc1OC`, for which the IC50 is > 80 µM (inactive).

On to `CCN1CCCC1CNC(=O)c1ccc2c(c1)NC(=O)/C(=C\c1ccc(C)cc1)S2` (configuration not stated), for which the IC50 is 6.79 µM.

In the case of `C=CCc1ccccc1OCC(=O)N/N=C/c1ccccc1OCC`, the IC50 was > 80 µM (inactive).

On to `O=C(COc1cccc2ccccc12)Nc1ccc(Cl)cc1C(=O)O`, for which the IC50 was 33.7 µM.

Take `CCN(CC)c1nc(N)nc(NS(=O)(=O)c2ccc(Cl)cc2)n1`: the IC50 was > 80 µM (inactive).

As for `O=C(O)c1cccc(N2C(=O)C=CC2=O)c1`, the IC50 was 55.2 µM.

On to `COc1cccc(C=Nc2cc(C(C)C)c(O)cc2C)c1O`, for which the IC50 was > 80 µM (inactive).

On to `COc1ccc(C(=O)Nc2sc3c(c2C(=O)O)CC(C)(C)OC3)cc1`, for which the IC50 was 40.6 µM.

With `CCC(CO)[n+]1c(C)cc(/C=C2\Sc3ccccc3N2Cc2ccccc2)cc1C` (configuration not stated), the IC50 was 24.3 µM.

As for `C=CCOc1ccc(CNc2ccc3[nH]c(=O)[nH]c3c2)cc1OC`, the IC50 is > 80 µM (inactive).

As to `Clc1ccc(N=c2ssnc2Cl)nc1`, the IC50 was > 80 µM (inactive).

With `COc1cc(N=Cc2c(CO)cnc(C)c2O)cc(OC)c1OC`, the IC50 was 30.5 µM.

As to `COc1cc(-c2cc(OC)c(O)c(OC)c2)cc(OC)c1O`, the IC50 is > 80 µM (inactive).

`COc1ccc(N=C2C(=S)N(c3ccc(OC)cc3)C(=NS(=O)(=O)c3ccccc3)N2c2ccccc2)cc1`: the IC50 was > 80 µM (inactive).

Take `Cn1c(=O)[nH]c(=O)c2c1nc([N+](=O)[O-])n2Cc1ccccc1`: the IC50 is > 80 µM (inactive).

Take `NS(=O)(=O)c1ccc(N/N=C/c2ccc(O)c(O)c2O)c([N+](=O)[O-])c1`: the IC50 is > 80 µM (inactive).

For `Cc1ccc(NC(=O)c2ccc(Cl)c(N3C(=O)C=CC3=O)c2)cc1`, the IC50 is 28.2 µM.

On to `Cc1nn(-c2ccccc2)c(Cl)c1/C=N/Nc1nc2ccccc2n1C`, for which the IC50 was > 80 µM (inactive).

Regarding `CCN(CC)CCNC(=O)CCCCn1c(=S)[nH]c2c([nH]c3ccc(OC)cc32)c1=O`, the IC50 was 15.7 µM.

Consider `CC1N(C)c2cccc3cccc(c23)N1C`, for which the IC50 is 19.7 µM.

As to `c1ccc(SSc2ccccn2)nc1`, the IC50 is 64.1 µM.

For the compound `O=C1NC(=O)C(=Cc2ccc(-c3ccccc3[N+](=O)[O-])o2)C(=O)N1`, the IC50 was 69.9 µM.

`O=C1C(=Cc2cccc(O)c2O)SC(=S)N1CCCN1CCOCC1`: the IC50 is 28.2 µM.

For the compound `CC1(C)CN(c2ccccc2)N(C(=O)c2ccc(C#N)cc2)C1=O`, the IC50 was > 80 µM (inactive).

For `Cc1cnc(C=NNC(N)=S)c2cccc(N)c12`, the IC50 is > 80 µM (inactive).

Turning to `Clc1cccc(Cl)c1CNc1ccc(N2CCCC2)cc1`, the IC50 was 60 µM.

On to `Cc1ccc2nc3sc(C(=O)N4CCOCC4)c(N)c3cc2c1`, for which the IC50 was 37 µM.

Take `O=C1Nc2cc(C(=O)NCCCN3CCCC3)ccc2S/C1=C/c1cccc(Cl)c1`: the half-maximal inhibitory concentration (IC50) is 34.2 µM.

In the case of `O=C(CCl)NCCN1C(=O)S/C(=C\c2cccnc2)C1=O`, the IC50 is > 80 µM (inactive).

Turning to `CCNc1nc(NC(C)C)nc(NS(=O)(=O)c2ccc(Cl)cc2)n1`, the IC50 was > 80 µM (inactive).

Regarding `O=C(Cn1sc2ccccc2c1=O)Nc1ccc(F)cc1`, the IC50 was 13.8 µM.

As to `CC(SCC(=O)Nc1ccccc1)c1nc2ccccc2c(=O)[nH]1` (configuration not stated), the IC50 was > 80 µM (inactive).

`Cc1ccccc1N/C(SCc1cccc(Br)c1)=C(/C#N)C(N)=O`: the IC50 is > 80 µM (inactive).

On to `COc1cccc(-c2c(C(=O)N/N=C/c3ccc(C)s3)nnn2-c2nonc2N)c1`, for which the IC50 is 53.5 µM.

Consider `CCOc1ccc(N(CC(=O)N/N=C/c2cc([N+](=O)[O-])ccc2Cl)S(C)(=O)=O)cc1`, for which the IC50 was > 80 µM (inactive).

Turning to `CC1(OC(=O)C2CCCC2)C(=O)C=C2C=C(c3ccsc3)N(CC3CC3)C=C2C1=O` (configuration not stated), the IC50 is > 80 µM (inactive).

As for `O=[N+]([O-])c1cnc(Sc2ccncn2)c([N+](=O)[O-])c1`, the IC50 was 62.8 µM.

As to `Cc1ccc(C(=O)NCC(=O)NCC(=O)OCC(=O)c2ccc([N+](=O)[O-])cc2)cc1`, the IC50 is > 80 µM (inactive).

As to `Cc1cc(C)c(S(=O)(=O)Nc2cc(SCC(=O)O)c(O)c3ccccc23)cc1C`, the IC50 was 41.4 µM.

Take `COc1c(O)ccc2c1CN1CCc3cc4c(cc3C1C2)OCO4` (configuration not stated): the IC50 is > 80 µM (inactive).

Consider `CCCCCCCCSC1=CC(=O)C(OC)=C(OC)C1=O`, for which the IC50 was > 80 µM (inactive).

For the compound `Nn1c(CSc2nc3ccccc3o2)nnc1CSc1nc2ccccc2o1`, the IC50 is > 80 µM (inactive).

Regarding `Cc1cc(O)c(-c2cc(O)c(C)cc2O)cc1O`, the IC50 was 44.5 µM.

For `Cc1ccc(-n2sc3cc(F)ccc3c2=O)c(C)c1`, the 50% inhibitory concentration (IC50) is 12.5 µM.

`Cc1cc(C)c2c(=O)n(CC(=O)Nc3ccc(Br)c(C)c3)sc2n1`: the IC50 is 58.5 µM.

In the case of `Cc1ccc(-c2nc(N3CCOCC3)s[n+]2-c2ccccc2)cc1`, the IC50 was > 80 µM (inactive).

Consider `Cc1cc(C)c2c(=O)n(CC(=O)Nc3cccc(F)c3)sc2n1`, for which the IC50 was 41.6 µM.

On to `CNS(=O)(=O)c1ccc(-c2ccc(C=C3C(=O)NC(=O)NC3=O)o2)cc1`, for which the IC50 was 33.6 µM.

Take `Cc1cc(C)c2sc(NC(=O)C3=COCCO3)nc2c1`: the IC50 was 30.2 µM.

Turning to `CCn1c(SCC(=O)Nc2ccccc2OC)nnc1-c1cnccn1`, the IC50 was > 80 µM (inactive).

`O=c1c2ccc(F)cc2sn1-c1ccccc1`: the IC50 is 15.4 µM.

Take `c1ccc(OCc2nnc3n2N=C(c2ccccc2)CS3)cc1`: the IC50 is > 80 µM (inactive).

As to `COc1ccc(C2(CNC(=O)c3ccc(OC)c([N+](=O)[O-])c3)CCCCC2)cc1OC`, the IC50 is > 80 µM (inactive).

As to `Cc1noc(C(=O)Nc2sc3c(c2C#N)CCC3)c1Cl`, the IC50 is > 80 µM (inactive).

Regarding `Cn1c(=O)[nH]c(=O)c2c1[nH]c(=S)n2CCCc1ccccc1`, the IC50 was 43.7 µM.

For the compound `O=C(COc1ccccc1F)OCC(=O)c1ccc([N+](=O)[O-])cc1`, the IC50 is > 80 µM (inactive).

Regarding `O=c1[nH]c2ccc(NCc3ccccc3OCc3ccc(Cl)cc3)cc2[nH]1`, the IC50 was > 80 µM (inactive).

For the compound `O=C1C(c2cc(=O)c3ccccc3[nH]2)=C(O)c2ccccc21`, the IC50 is > 80 µM (inactive).

As to `COc1ccc(NS(=O)(=O)c2ccc(N3CCCC3)c(NC(=S)Nc3cccc(C)c3C)c2)cc1`, the IC50 is > 80 µM (inactive).

With `COc1ccc(C(=O)c2c(C(F)(F)F)oc3c2C(=O)c2ccccc2C3=O)cc1OC`, the IC50 is > 80 µM (inactive).

Regarding `CCCCOc1ccc(Cc2n[nH]c(=S)n2N)cc1`, the IC50 was > 80 µM (inactive).

For the compound `Cc1cc(C)c2c(=O)n(CC(=O)NC3CCCC3)sc2n1`, the IC50 was > 80 µM (inactive).

With `C=CCOc1c(Cl)cc(CNc2ccc3[nH]c(=O)[nH]c3c2)cc1OC`, the IC50 was > 80 µM (inactive).

Source of the values: PubChem BioAssay AID540269 (Sanford-Burnham Center for Chemical Genomics, 2011).
